53 molecules from patent US20230078764A1 (Yumanity Therapeutics, Inc., priority 2019, published 2023) can be followed below.

The target of test [1] is T1, human SCD1 (Homo sapiens, UniProt O00767).
T1 construct: expressed in transfected cells; host or cells: yeast strain with OLE1 deleted, plasmid-borne human SCD1 (selected in SD-Ura)
T1 sequence (O00767 1-359): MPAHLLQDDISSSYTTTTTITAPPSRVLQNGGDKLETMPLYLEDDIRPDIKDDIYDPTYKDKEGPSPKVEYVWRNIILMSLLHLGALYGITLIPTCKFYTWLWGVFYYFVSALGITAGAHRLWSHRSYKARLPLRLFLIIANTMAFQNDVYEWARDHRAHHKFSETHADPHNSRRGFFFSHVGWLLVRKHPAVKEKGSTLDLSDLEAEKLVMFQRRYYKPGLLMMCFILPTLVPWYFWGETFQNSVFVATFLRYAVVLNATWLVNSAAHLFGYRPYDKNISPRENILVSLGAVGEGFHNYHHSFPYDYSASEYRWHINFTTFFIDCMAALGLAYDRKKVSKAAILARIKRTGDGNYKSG
Nature of the test: Growth inhibition of yeast strain expressing human SCD1 as sole desaturase (OLE1 deleted), OD600 readout. Format: cell-based. The note with it: yeast strain expressing human SCD1 as sole desaturase; growth (OD600) after 40 h at 30° C.; read-out: SCD1 IC50.

In test [2] the target is T2, human SCD5 (Homo sapiens, UniProt Q86SK9).
T2 construct: expressed in transfected cells; host or cells: yeast strain with OLE1 deleted, plasmid-borne human SCD5 (selected in SD-Ura)
T2 sequence (Q86SK9 1-330): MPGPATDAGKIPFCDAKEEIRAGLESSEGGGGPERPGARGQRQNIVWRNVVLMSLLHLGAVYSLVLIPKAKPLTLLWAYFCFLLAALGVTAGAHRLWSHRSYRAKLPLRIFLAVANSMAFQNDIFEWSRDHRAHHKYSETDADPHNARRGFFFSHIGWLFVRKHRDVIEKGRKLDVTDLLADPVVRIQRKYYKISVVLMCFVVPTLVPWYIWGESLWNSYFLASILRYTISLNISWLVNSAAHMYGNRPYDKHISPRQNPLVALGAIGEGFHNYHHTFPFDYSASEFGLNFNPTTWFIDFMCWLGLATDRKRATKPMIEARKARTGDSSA
Nature of the test: Growth inhibition of yeast strain expressing human SCD5 as sole desaturase (OLE1 deleted), OD600 readout. Format: cell-based. The note with it: yeast strain expressing human SCD5 as sole desaturase; growth (OD600) after 40 h at 30° C.; read-out: SCD5 IC50.

Where only a bound is given, the exact number is not on record here.

On to `Cc1cnc(C(=O)Nc2ccc(Cc3cccc(F)c3)cn2)cn1` [Compound 252], for which the values for the IC50 in test [1] and in test [2] were 0.69 µM and 0.13 µM, respectively.
As to `Cn1nc(NC(=O)c2ccc(Cc3cccc(Cl)c3)nn2)ccc1=O` [Compound 254], the figures for the IC50 in test [1] and in test [2] were more than 45 µM and 3.53 µM, respectively.
The corresponding values for `O=C(Nc1ccc(Cc2cccc(Cl)c2)cn1)c1ccc(=O)n(C2CC2)n1` [Compound 256] are 0.75 µM and 0.04 µM.
For `CCCn1nc(C(=O)Nc2ccc(Cc3cccc(Cl)c3)nn2)ccc1=O` [Compound 257], the IC50 (commonly the concentration that gives 50% inhibition) in test [1] is more than 45 µM; in test [2] it was 4.36 µM.
`O=C(Nc1ccc(Cc2cccc(F)c2)cn1)c1ccc(=O)n(C2CC2)c1` [Compound 258]: the figures for the IC50 in test [1] and in test [2] were 3.86 µM and 0.18 µM, respectively.
Take `Cn1cc(C(=O)Nc2ccc(COc3cccc(Cl)c3)nn2)ccc1=O` [Compound 259]: the half-inhibitory concentration (IC50) was 5.37 µM in test [1] and 0.57 µM in test [2].
Consider `CN1N=C(C(=O)Nc2ccc(COc3cccc(F)c3)cn2)CCC1=O` [Compound 260], for which the half-inhibitory concentration (IC50) in test [1] was found to be 4.58 µM; in test [2], 0.17 µM.
With `CN1N=C(C(=O)Nc2ccc(COc3cccc(Cl)c3)cn2)CCC1=O` [Compound 261], the values for the 50% inhibitory concentration (IC50) in test [1] and in test [2] were 1.42 µM and 0.05 µM, respectively.
Consider `Cn1nc(C(=O)Nc2ccc(COc3cccc(Cl)c3)cn2)ccc1=O` [Compound 262], for which the IC50 in test [1] worked out at 3.98 µM; in test [2] it was 0.26 µM.
On to `CCn1cc(C(=O)Nc2ccc(COc3cccc(Cl)c3)cn2)ccc1=O` [Compound 264], for which the half-inhibitory concentration (IC50) in test [1] was more than 45 µM; in test [2], 8.84 µM.
The corresponding values for `CN1N=C(C(=O)Nc2ccc(COc3ccc(F)c(Cl)c3)cn2)CCC1=O` [Compound 265] are 23.3 µM and 0.35 µM.
On to `Cn1cc(C(=O)Nc2ccc(COc3ccc(F)c(Cl)c3)cn2)ccc1=O` [Compound 266], for which the IC50 stood at 1.85 µM in test [1] and 0.4 µM in test [2].
Take `Cn1cc(C(=O)Nc2ccc(Cc3cc(F)c(F)c(F)c3)nn2)ccc1=O` [Compound 267]: the IC50 in test [1] was more than 45 µM; in test [2], 10.6 µM.
For the molecule `CN1N=C(C(=O)Oc2ccc(NCc3cccc(Br)c3)nc2)CCC1=O` [Compound 268], the results for the IC50 in test [1] and in test [2] were more than 45 µM and 3.04 µM, respectively.
For `CN1N=C(C(=O)Oc2ccc(NCc3cc(F)cc(C#N)c3)nc2)CCC1=O` [Compound 269], the IC50 was more than 45 µM in test [1] and 0.03 µM in test [2].
`CN1N=C(C(=O)Nc2ccc(OCc3cc(F)cc(C#N)c3)cn2)CCC1=O` [Compound 270]: the results for the half-maximal inhibitory concentration (IC50) in test [1] and in test [2] were more than 45 µM and 6.88 µM, respectively.
Take `CN1N=C(C(=O)Nc2ccc(Cc3cccs3)nn2)CCC1=O` [Compound 271]: the half-inhibitory concentration (IC50) in test [1] was more than 45 µM; in test [2] it was 14.8 µM.
For `O=C(Nc1ccc(Cc2cccc(F)c2)cn1)c1ccc(=O)n(C2COC2)c1` [Compound 272], the concentration for half-maximal inhibition (IC50) in test [1] was more than 45 µM; in test [2], 13 µM.
For `O=C(Nc1ccc(Cc2cccc(Cl)c2)cn1)c1ccc(=O)n(C2COC2)c1` [Compound 273], the results for the IC50 in test [1] and in test [2] were more than 45 µM and 3.25 µM, respectively.
On to `CN1N=C(C(=O)Nc2ccc(Cc3cncc(Cl)c3)cn2)CCC1=O` [Compound 274], for which the half-inhibitory concentration (IC50) in test [1] was more than 45 µM; in test [2], 0.76 µM.
For `Cn1nc(C(=O)Nc2ccc(Cc3cncc(Cl)c3)cn2)ccc1=O` [Compound 275], the IC50 is more than 45 µM in test [1] and 3.02 µM in test [2].
With `Cn1cc(C(=O)Nc2ccc(Cc3cncc(Cl)c3)cn2)ccc1=O` [Compound 276], the IC50 was more than 45 µM in test [1] and 0.95 µM in test [2].
As to `CN1N=C(C(=O)Nc2ccc(Cc3cncc(C(F)(F)F)c3)cn2)CCC1=O` [Compound 277], the results for the IC50 in test [1] and in test [2] were more than 45 µM and 13.4 µM, respectively.
On to `Cn1nc(C(=O)Nc2ccc(Cc3cc(C(F)(F)F)ccn3)cn2)ccc1=O` [Compound 278], for which the 50% inhibitory concentration (IC50) came to 39.9 µM in test [1] and 2.03 µM in test [2].
On to `Cn1cc(C(=O)Nc2ccc(Cc3cc(C(F)(F)F)ccn3)cn2)ccc1=O` [Compound 279], for which the concentration for half-maximal inhibition (IC50) in test [1] worked out at 21.5 µM; in test [2], 1.96 µM.
The corresponding values for `Cn1nc(C(=O)Nc2ccc(Cc3cccc(F)c3)cn2)cc(Br)c1=O` [Compound 280] are 0.13 µM and 0.02 µM.
In the case of `CN1N=C(C(=O)Nc2ccc(NCc3cccc(F)c3)cn2)CCC1=O` [Compound 281], the IC50 is more than 45 µM in test [1] and 2.75 µM in test [2].
Regarding `COc1cc(Cl)cc(Cc2ccc(NC(=O)c3ccc(=O)n(C)n3)nc2)c1` [Compound 282], the 50% inhibitory concentration (IC50) worked out at 0.21 µM in test [1] and 0.02 µM in test [2].
As for `Cn1c(C(=O)Nc2ccc(Cc3cccc(F)c3)cn2)coc1=O` [Compound 283], the half-maximal inhibitory concentration (IC50) was 2.96 µM in test [1] and 0.27 µM in test [2].
On to `CN(C)C(=O)c1ccc(NC(=O)c2ccc(Cc3cccc(Cl)c3)cn2)cc1` [Compound 284], for which the half-inhibitory concentration (IC50) was more than 45 µM in test [1] and 4.52 µM in test [2].
Consider `O=C(Nc1ccc(Cc2cccc(F)c2)cn1)c1ccn(C2CC2)n1` [Compound 285], for which the IC50 in test [1] amounted to 9.41 µM; in test [2], 1.43 µM.
Take `Cn1nc(C(=O)Nc2ccc(NCc3cccc(Cl)c3)cn2)ccc1=O` [Compound 286]: the values for the IC50 in test [1] and in test [2] were 4 µM and 0.24 µM, respectively.
For `O=C(Nc1ccc(Cc2cccc(F)c2)cn1)c1ccc(=O)n(C(F)F)c1` [Compound 287], in that order: 0.86 µM and 0.14 µM.
The corresponding values for `CN1N=C(C(=O)Nc2ccc(/C=C/c3cccc(Cl)c3)nn2)CCC1=O` [Compound 288] are more than 45 µM and 2.52 µM.
For `CNCc1ccc(C(=O)Nc2ccc(Cc3cccc(Cl)c3)cn2)cn1` [Compound 289], in that order: more than 45 µM and 9.2 µM.
On to `O=C(Nc1ccc(Cc2cccc(Cl)c2)cn1)c1cnc(CO)c(F)c1` [Compound 290], for which the half-maximal inhibitory concentration (IC50) in test [1] and in test [2] was 0.01 µM in each case.
In the case of `O=C(Nc1ccc(COc2cccc(Cl)c2)cn1)c1ccc(=O)n(C2CC2)c1` [Compound 291], the values for the IC50 in test [1] and in test [2] were 22.5 µM and 4.91 µM, respectively.
For `O=C(Nc1ccc(COc2cccc(Cl)c2)cn1)c1ccc(CO)nc1` [Compound 292], in that order: 2.07 µM and 0.01 µM.
In the case of `O=C(Nc1ccc(COc2ccc(F)c(Cl)c2)cn1)c1ccc(CO)nc1` [Compound 293], the IC50 in test [1] came to 0.08 µM; in test [2], 0.04 µM.
Consider `CN1N=C(NC(=O)c2ccc(Cc3cccc(C(F)F)c3)cn2)CCC1=O` [Compound 294], for which the values for the concentration for half-maximal inhibition (IC50) in test [1] and in test [2] were more than 45 µM and 0.3 µM, respectively.
For `O=C(Nc1ccc(Cc2cccc(Cl)c2)cn1)c1ccc(C(F)F)nc1` [Compound 295], in that order: 22.5 µM and 0.34 µM.
As to `CN1N=C(C(=O)Nc2ccc(CCc3cccc(Cl)c3)cn2)CCC1=O` [Compound 296], the concentration for half-maximal inhibition (IC50) is more than 45 µM in test [1] and 0.86 µM in test [2].
Consider `Cn1nc(C(=O)Nc2ccc(CCc3cccc(Cl)c3)cn2)ccc1=O` [Compound 297], for which the IC50 in test [1] was more than 45 µM; in test [2], 1.2 µM.
Take `Cn1cc(C(=O)Nc2ccc(C3CC3c3ccccc3)cn2)ccc1=O` (stereo not shown) [Compound 298]: the concentration for half-maximal inhibition (IC50) in test [1] is 2.75 µM; in test [2], 0.34 µM.
As for `O=C(Nc1ccc(Cc2cccc(Cl)c2)cn1)c1ccc(Br)nc1` [Compound 299], the half-maximal inhibitory concentration (IC50) in test [1] is more than 45 µM; in test [2] it was 3.79 µM.
The corresponding values for `Cn1nc(C(=O)Nc2ccc(Nc3cccc(F)c3)cn2)ccc1=O` [Compound 300] are more than 45 µM and 5.6 µM.
On to `CN(c1ccc(NC(=O)c2ccc(=O)n(C)n2)nc1)c1cccc(F)c1` [Compound 301], for which the IC50 in test [1] was more than 45 µM; in test [2], 5.22 µM.
Take `CN(c1ccc(NC(=O)c2ccc(=O)n(C)c2)nc1)c1cccc(F)c1` [Compound 302]: the IC50 in test [1] is more than 45 µM; in test [2], 3.34 µM.
As to `O=C(Nc1ccc(Nc2cccc(Cl)c2)cn1)c1ccc(=O)n(C2CC2)n1` [Compound 303], the 50% inhibitory concentration (IC50) in test [1] amounted to 4.18 µM; in test [2], 0.97 µM.
For `O=C(Nc1ccc(Nc2cccc(F)c2)cn1)c1ccc(=O)n(C2CC2)n1` [Compound 304], in that order: more than 45 µM and 2.7 µM.
As for `Cn1cc(NC(=O)N2CCC(Oc3cccc(Cl)c3)CC2)ccc1=O` [Compound 305], the IC50 was determined as 27 µM in test [1] and 6.94 µM in test [2].
As for `Cn1nc(OC(=O)N2CCC(Oc3cccc(Cl)c3)CC2)ccc1=O` [Compound 307], the 50% inhibitory concentration (IC50) in test [1] came out at 1.17 µM; in test [2] it was 0.57 µM.
Turning to `Cn1cc(NC(=O)N2CCC(Cc3cccc(Cl)c3)CC2)ccc1=O` [Compound 308], the IC50 was 22.8 µM in test [1] and 3.12 µM in test [2].
